From patent US4937245A, “Bisphenylalkylpiperazine derivatives, a method of their preparation and a pharmaceutical preparation” (priority 1987, dated 1990)

How the values were obtained:
[1] = system: 5-HT2 binding site; details: background statement on known drugs; cited from earlier work
[2] = system: amphetamine-induced hypermotility in mice; test: Antagonism of amphetamine-induced hypermotility in mice (Test 1); assay type: in vivo; details: Mus musculus, sc, 1.5 h, test compound s.c., d-amphetamine 2 mg/kg i.p., locomotor activity 90 min, dose reducing motility to midpoint between amphetamine and saline controls
Protocol: Antagonism of amphetamine-induced hypermotility in mice
A low dose (2 mg/kg) of d-amphetamine administered to mice induced pronounced locomotor activity.
Female NMRI-mice, weighing about 25 g are divided into groups of 4 animals and placed in macrolon cages. The cages are placed on recording arenas in nine sound attenuated boxes with constant light and ventilation. After a familiarization period of 90 minutes the mice are brought up from the cages and treated in the following way; one control group receives saline i.p., one control group receives d-amphetamine sulphate, 2 mg/kg i.p. and test animals are treated s.c. with three different doses of the test compound and immediately thereafter with d-amphetamine 2 mg/kg i.p. Immediately after the administration the macrolon cages with the mice are put back into the test boxes and a computerized equipment records the locomotor activity in the cages for 90 minutes.
For each test compound 4 cages are treated with saline, 4 cages with only d-amphetamine and 6 cages/dose test compound+d-amphetamine. This is the total of three different experiments.
For each treatment group the mean number of counts during 90 minutes following the administration is calculated.
The ED50 -value (mg/kg) is calculated from the dose-response curve by means of linear regression. […]

[3] = target: T1, D2-receptors (Rattus norvegicus, UniProt P61169); test: Affinity to D2-receptors, 3H-spiroperidol ligand (Test 2); assay type: binding; details: 3H-spiroperidol as ligand
T1 construct: from tissue; host or cells: brain membranes
Protocol: Affinity to D2 -receptors
The binding assay is carried out essentially as described by Leysen et al., (Mol. Pharmacol. 21, 301-14, 1982) using ^3 H-spiroperidol as ligand.

[4] = target: T2, 5HT2-receptors (Rattus norvegicus, UniProt P14842); test: Affinity to 5HT2-receptors, 3H-ketanserine ligand (Test 3); assay type: binding; details: 3H-ketanserine as ligand
T2 construct: from tissue; host or cells: brain membranes
Protocol: Affinity to 5HT2 -receptors
The binding assay is carried out essentially as described by Leysen et al., (Mol. Pharmacol. 21, 301-14, 1982) using ^3 H-ketanserine as ligand.

T1 sequence (P61169 whole entry): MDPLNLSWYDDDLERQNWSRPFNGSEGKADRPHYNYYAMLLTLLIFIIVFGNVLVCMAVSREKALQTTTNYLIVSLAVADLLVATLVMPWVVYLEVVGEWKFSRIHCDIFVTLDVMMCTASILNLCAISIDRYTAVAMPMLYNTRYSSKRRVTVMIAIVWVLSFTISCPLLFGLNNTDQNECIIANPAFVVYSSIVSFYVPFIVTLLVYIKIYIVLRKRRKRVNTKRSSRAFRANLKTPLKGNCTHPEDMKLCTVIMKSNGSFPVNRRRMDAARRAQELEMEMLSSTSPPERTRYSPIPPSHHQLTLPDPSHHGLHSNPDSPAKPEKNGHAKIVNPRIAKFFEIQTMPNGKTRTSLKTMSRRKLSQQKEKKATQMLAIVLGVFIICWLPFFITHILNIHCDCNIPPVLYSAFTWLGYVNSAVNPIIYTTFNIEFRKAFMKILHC
T2 sequence (P14842 whole entry): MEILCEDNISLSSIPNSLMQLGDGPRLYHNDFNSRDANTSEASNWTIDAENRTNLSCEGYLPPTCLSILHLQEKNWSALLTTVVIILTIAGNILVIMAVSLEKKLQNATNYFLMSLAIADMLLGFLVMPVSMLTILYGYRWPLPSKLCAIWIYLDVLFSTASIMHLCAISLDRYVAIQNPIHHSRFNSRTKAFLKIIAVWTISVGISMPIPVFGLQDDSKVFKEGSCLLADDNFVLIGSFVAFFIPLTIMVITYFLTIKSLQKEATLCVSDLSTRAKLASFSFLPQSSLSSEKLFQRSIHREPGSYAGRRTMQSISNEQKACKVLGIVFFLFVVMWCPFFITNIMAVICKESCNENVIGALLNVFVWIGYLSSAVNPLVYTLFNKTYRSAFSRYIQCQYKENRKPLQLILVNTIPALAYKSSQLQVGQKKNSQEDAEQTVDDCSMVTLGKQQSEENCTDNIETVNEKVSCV

Q: Which “5HT2 blocking potency / binding site preference” value [1] does the source give for `Cc1nc2sccn2c(=O)c1CCN1CCC(=C(c2ccc(F)cc2)c2ccc(F)cc2)CC1` [ritanserine] here?
A: labels preferentially the 5-HT2 binding site

Q: For `Fc1ccc(C(CCCN2CCN(c3ccccn3)CC2)c2ccc(F)cc2)cc1` [3:1, 4-[4,4-bis(p-fluorophenyl)butyl]-1-(2-pyridyl)-piperazine], which ED50 [2] is on record?
A: 0.1 mg/kg

Q: And the Ki [3]?
A: 60 nM

Q: What about the Ki [4] of the same compound?
A: 5.8 nM

Q: For `Fc1ccc(C(CCCN2CCCN(c3ccccn3)CC2)c2ccc(F)cc2)cc1` [1:15, 4-[4,4-bis(p-fluorophenyl)butyl]-1-(2-pyridyl)-(1,4-diaza-cycloheptane)], which Ki [3] is on record?
A: 25 nM

Q: What about the Ki [4] of the same compound?
A: 1.3 nM

Q: With `NC(=O)c1cccnc1N1CCN(CCCC(c2ccc(F)cc2)c2ccc(F)cc2)CC1` [1:6, 4-[4,4-bis(p-fluorophenyl)butyl]-1-(3-carbamoyl-2-pyridyl)piperazine] as the compound, how does the ED50 [2] read?
A: 0.3 mg/kg

Q: And the Ki [3]?
A: 30 nM

Q: And the Ki [4]?
A: 2.1 nM
